Laboratory results published in the NIST ThermoML archive (doi:10.1021/je800637t).
± gives the expanded uncertainty stated by the source.

Assays:
[1] = refractive index (Na D-line) (dimensionless); mn = molality of the nth substance listed, in mol/kg; conditions: 100.8 kPa, Liquid, Standard Abbe refractometry
[2] = mn = molality of the nth substance listed, in mol/kg; conditions: 100.8 kPa, Liquid; for viscosity: Cone and plate viscometry; for electrical conductivity: Kyoto model CM-117 conductivity meter; for mass density: Vibrating tube method

O=[N+]([O-])[O-].[K+] [potassium nitrate] + O
Conditions	electrical conductivity, [2] [S/m]	mass density, [2] [kg/m3]	refractive index, [1]	viscosity, [2] [mPa·s]
298.15 K, m1 = 0.3799	0.000381 ± 5e-06	1020.03 ± 0.09	1.33593 ± 0.0004	0.879 ± 0.008
298.15 K, m1 = 0.76	0.000705 ± 8e-06	1041.91 ± 0.06	1.33907 ± 0.0004	0.87 ± 0.011
298.15 K, m1 = 1.14	0.000985 ± 1.2e-05	1062.91 ± 0.08	1.34205 ± 0.0004	0.869 ± 0.008
298.15 K, m1 = 1.52	0.00122 ± 1.5e-05	1083.04 ± 0.12	1.34488 ± 0.0004	0.872 ± 0.012
298.15 K, m1 = 1.9	0.00144 ± 1.7e-05	1102.4 ± 0.12	1.34751 ± 0.0004	0.881 ± 0.008
298.15 K, m1 = 2.28	0.00162 ± 1.9e-05	1121.03 ± 0.09	1.35009 ± 0.0004	0.889 ± 0.008
298.15 K, m1 = 2.66	0.00179 ± 2.1e-05	1139.02 ± 0.1	1.35253 ± 0.0004	0.901 ± 0.011
298.15 K, m1 = 3.04	0.00194 ± 2.3e-05	1156.32 ± 0.13	1.35479 ± 0.0004	0.914 ± 0.014
298.15 K, m1 = 3.42	0.00211 ± 2.5e-05	1173.06 ± 0.12	1.35704 ± 0.0004	0.931 ± 0.008
298.15 K, m1 = 3.821	0.00223 ± 2.7e-05	1189.24 ± 0.13	1.35915 ± 0.0004	0.95 ± 0.009
313.15 K, m1 = 0.3799	0.000528 ± 6e-06	1014.52 ± 0.07	1.33384 ± 0.0004	0.652 ± 0.01
313.15 K, m1 = 0.76	0.000954 ± 1.1e-05	1035.85 ± 0.05	1.33687 ± 0.0004	0.654 ± 0.007
313.15 K, m1 = 1.14	0.00129 ± 1.5e-05	1056.36 ± 0.1	1.33975 ± 0.0004	0.657 ± 0.008
313.15 K, m1 = 1.52	0.00159 ± 1.9e-05	1076.08 ± 0.07	1.34248 ± 0.0004	0.665 ± 0.012
313.15 K, m1 = 1.9	0.00184 ± 2.2e-05	1095.07 ± 0.09	1.345 ± 0.0004	0.673 ± 0.008
313.15 K, m1 = 2.28	0.00208 ± 2.5e-05	1113.37 ± 0.13	1.34761 ± 0.0004	0.682 ± 0.009
313.15 K, m1 = 2.66	0.00227 ± 2.7e-05	1131.04 ± 0.1	1.34991 ± 0.0004	0.693 ± 0.01
313.15 K, m1 = 3.04	0.00248 ± 3e-05	1148.05 ± 0.13	1.35227 ± 0.0004	0.703 ± 0.008
313.15 K, m1 = 3.42	0.00263 ± 3.2e-05	1164.53 ± 0.15	1.35443 ± 0.0004	0.716 ± 0.01
313.15 K, m1 = 3.8	0.00278 ± 3.3e-05	1180.49 ± 0.12	1.35643 ± 0.0004	0.733 ± 0.014
313.15 K, m1 = 4.581	0.00308 ± 3.7e-05	1211.11 ± 0.15	1.36051 ± 0.00041	0.76 ± 0.008
313.15 K, m1 = 5.341	0.0033 ± 4e-05	1239.46 ± 0.18	1.36426 ± 0.00041	0.803 ± 0.009
313.15 K, m1 = 6.273	0.00357 ± 4.3e-05	1271.3 ± 0.2	1.36812 ± 0.00041	0.844 ± 0.011
